Test results as given in US11590110B2, “Compositions and methods for reactivating latent immunodeficiency virus using a GSK-3 inhibitor” (priority 2017, dated 2023).
Entries after “also recorded” stand apart in the source; their conditions may differ.

Tests used:
[1] = system: latent HIV in CD4+ T cells from HIV-1-infected individuals on suppressive ART; assay: Example 1: reactivation of latent HIV, viral mRNA in culture supernatant by ddPCR; settings: 48 hours
patient CD4+ T cells = assay: Example 7: viability of patient CD4+ T cells, Cell-titer blue; settings: 48 h
[2] = system: patient-derived CD4+ T cells; assay: Example 3: expression of activation markers CD69 and CD25 in patient-derived CD4+ T cells; type: cell-based, human; settings: 48 hours; anti-CD3/CD28 beads = 100%
Experimental: Following treatment with Tideglusib, the CD4^+ T cells were spun down and stained with antibodies for the activation markers CD69 and CD25. Briefly, cells were harvested 48 hours after Tideglusib treatment, incubated with the antibodies for 15 minutes at room temperature, than washed and fixed with 1% PFA for 30 minutes; then washed again and analyzed via flow cytometer.

[3] = system: patient-derived CD4+ T cells; assay: Example 2: viability of patient-derived CD4+ T cells (Zombie Violet, flow cytometry); type: cell-based, human; settings: 48 h incubation
Experimental: Following treatment with Tideglusib, the CD4^+ T cells were spun down and stained with the cell-death marker Zombie Violet (BioLegend). Briefly, cells were harvested 48 hours after LRA treatment, incubated with the Zombie dye for 15 minutes at room temperature, than washed and fixed with 1% PFA for 30 minutes; then washed again and analyzed via flow cytometer. Percentage of live (Zombie negative (−)) T Cells (CD3+) was normalized to the DMSO-treated control (DMSO or “untreated”=1).

[4] = system: AKT/mTOR pathway in CD4+ T cells; assay: Example 5: phosphoproteomics (mass spectrometry) and GO enrichment analysis; type: cell-based, human; settings: 1 μM; 15 minutes
Experimental: Cells were lysed in a buffer containing 8M urea, 100 mM Tris pH 8.0, 150 mM NaCl, and protease inhibitors (Roche Complete tablet). Lysates were reduced with 4 mM TCEP for 30 minutes at room temperature and alkylated with 10 mM iodoacetamide for 30 minutes at room temperature in the dark. Samples were diluted 1:4 in 100 mM Tris pH 8.0 to reduce urea concentration to 2M and digested with trypsin (1:100 enzyme:substrate ratio) overnight at 37 degrees Celsius. Peptides were desalted with SepPak C 18 solid phase extraction (Waters) according the manufacturer's specifications and lyophilized to dryness. Phosphopeptides were purified using an immobilized metal affinity chromatography approach.
Samples were analyzed on a Thermo Scientific LTQ Orbitrap Elite MS system equipped with an Easy nLC-1000 HPLC and autosampler system that is capable of maintaining back pressures of up to 10,000 psi for high resolution chromatographic separations. The HPLC interfaces with the MS system via a nanoelectrospray source.
Samples were injected onto a C18 reverse phase capillary column (75 um inner diameter×25 cm length, packed with 1.9 um C18 particles). Peptides were then separated by an organic gradient from 5% to 30% ACN in 0.1% formic acid over 180 minutes at a flow rate of 300 nl/min. The MS continuously collected spectra in a data-dependent fashion over the entire gradient.
Raw mass spectrometry data were analyzed using the MaxQuant software package (version 1.3.0.5). Data were matched to the SwissProt human reference sequence database. MaxQuant was configured to generate and search against a reverse sequence database for false discovery rate calculations. […] For MS/MS matching, a mass tolerance of 0.5 Da was allowed and the top 6 peaks per 100 Da were analyzed. […]
The MaxQuant-analyzed data were subsequently analyzed using an in-house computational pipeline for statistical analysis of relative quantification with fixed and/or mixed effect models, implemented in the MSstats Bioconductor package (version 3.3.10). […]

CD4+ T cells [5] = assay: Example 5: lactate production analysis; type: cell-based, human; settings: 24 hours of treatment
Experimental: Subsequently, media of the treated samples were tested for production of L-lactated using a Glycolysis Cell-Based Assay Kit (Cayman Chemical). This test measures the quantity of formazan, an artificial chromogenic dye that results from the reduction of tetrazolium salts in the presence of NADH in the culture media. Colored formazan absorbs between 490 and 520 nm and can be detected by a plate reader. Since lactate dehydrogenase catalyzes the reaction between NAD+ and lactate, yielding pyruvate and NADH, which directly reduces the tetrazolium salt, the quantity of formazan produced is proportional to the quantity of L-lactate in the culture medium, and is thus an indirect measurement of glycolysis. In order to determine specific L-Lactate concentration, a standard curve was obtained analyzing absorbance of known concentration of L-lactate as indicated in the manufacturer's protocol.

[6] = system: primary CD4+ T cells isolated from fresh human tonsils; assay: CD69 transcripts in primary CD4+ T cells from fresh human tonsils; type: cell-based; settings: 2-day treatment
CD4+ T cells [7] = assay: Example 5: CD4+ T cell viability, Cell Titer Blue assay; type: cell-based, human; settings: 48 hours; SB-216763 and tideglusib 10/100/1000 nM; bryostatin-1 10 nM
Experimental: 25 μl from each well/treatment were incubated with Cell Titer Blue reagent (Promega) for 3 to 4 hours at 37° C. The assay is based on the ability of living cells to convert a redox dye (resazurin) into a fluorescent end product (resorufin). Colorimetric analysis of treated cells was done with a Perkin Elmer EnSpire 2300 Multimode plate reader set to detect fluorescence (Ex:579 nm/Em:584 nm).

[8] = system: latent HIV in CD4+ T cells of HIV-infected patients on suppressive anti-retroviral therapy; assay: Example 7: reversal of HIV latency in patient CD4+ T cells, extracellular viral RNA by digital droplet PCR

In the case of O=c1sn(-c2cccc3ccccc23)c(=O)n1Cc1ccccc1 [Tideglusib, 4-benzyl-2-(naphthalen-1-yl)-1,2,4-thiadiazolidine-3,5-dione], the “induction of viral mRNA in culture supernatant, highest single donor” value ([1]; 1 μM, one donor) is reported as “up to 60 fold”, the “average increase in viral mRNA released into the culture supernatant compared to untreated control” value ([1]; 1 μM, vs DMSO-treated cells) is reported as 30 fold and the “reactivation of latent HIV from CD4+ T cells upon ex vivo treatment” value [1] is reported as “high level of reactivation; also recorded: even greater than that demonstrated with SB-216763”. The “toxicity based on cell-titer blue testing” value (patient CD4+ T cells) was “Neither tideglusib nor SB216763 induced toxicity”, the “activation markers CD69 and CD25 on the surface of CD4+ T cells” value [2] was “not up-regulated” and the “percentage of viable CD4+ T cells vs untreated control” value [3] was “Substantially all of the cells remained viable”. The “GO enrichment analysis of treated vs untreated phosphoproteomics results” value [4] was “activation of TCR signaling (data not shown), together with overall spliceosome complex activity, transcription activation, mRNA processing and EGFR signaling”, the “phosphoproteomics: GSK-3β and TSC2” value [4] was “confirmed inhibition of GSK-3β and TSC2” and the “phosphoproteomics: Rictor” value [4] was “revealed phosphorylation of Rictor on T1295”. For the same compound, the “L-lactate in the culture media” value (CD4+ T cells [5]) was “did not result in an increase of L-lactate”, the “expression of CD69 transcripts” value [6] was “reduces expression of CD69 transcripts” and the “CD4+ T-cell viability” value (CD4+ T cells [7]) was “does not reduce viability”. The “latency reversing activity, in words” value ([8]; at equivalent doses) was “comparable activity”, the “induction of latent virus production (virus-associated RNA over DMSO-treated control)” value ([8]; highest concentration) was roughly 40 fold and the “subjects that did not respond” value ([8]; highest dose) was 1 of 8.
